Laboratory results as given in patent US11013698B2, “Combinations of LSD1 inhibitors for the treatment of hematological malignancies” (Oryzon Genomics S.A., priority 2016, dated 2021).
Like-named read-outs stand apart in the source and are kept apart here.

Key:
Assay in all cases: Viability assay (96 hours), Alamar Blue
Assay type in all cases: cell-based
Conditions in all cases: for Reduction of viability (compared to vehicle controls): serial 1:3 dilution; for EC50: Homo sapiens, read-out: EC50 (viability)
MV(4;11) = test system: MV(4;11)
Protocol: (§1) AML cell lines were maintained in RPMI 10% FBS medium at 37° C. in a humidified incubator with controlled 5% CO2 atmosphere. Cell freezing and thawing was performed following recommendation from ATCC. Genetic profiling of the cell lines used is available in table 2. Cells were seeded at the optimal density (to guarantee linear growth during the treatment), as previously determined (4000 cells/well, except 16000 cells/well in the case of KASUMI-1 cells), in 96-well plates with 50 μL of medium. Three wells were reserved for each experimental condition; medium-only and vehicle-treated controls were also added for background correction and normalization respectively. […] Alamar Blue® is a cell viability indicator that uses the natural reducing power of living cells to convert resazurin to the fluorescent molecule, resorufin^43.

OCI-AML2 = test system: OCI-AML2
Protocol: as §1

KASUMI-1 = test system: KASUMI-1
Protocol: as §1

THP-1 = test system: THP-1
Protocol: as §1

HL-60 = test system: HL-60
Protocol: as §1

MOLM-13 = test system: MOLM-13
Protocol: as §1

OCI-AML3 = test system: OCI-AML3
Protocol: as §1

[1] = MV4-11, MV(4;11), 96 hours, single agent
[2] = OCI-AML2, 96 hours, single agent
[3] = KASUMI-1, 96 hours, single agent
[4] = MOLM-13, 96 hours, single agent
[5] = OCI-AML-3, OCI-AML3, 96 hours, single agent

O=C(CCCCCCC(=O)Nc1ccccc1)NO [SAHA, suberanilohydroxamic acid]
Reduction of viability (compared to vehicle controls) (MV(4;11); MV(4;11), 96 hours): greater than 20%
Reduction of viability (compared to vehicle controls) (OCI-AML2; OCI-AML2, 96 hours): greater than 20%
Reduction of viability (compared to vehicle controls) (KASUMI-1; KASUMI-1, 96 hours): greater than 20%
Reduction of viability (compared to vehicle controls) (THP-1; THP-1, 96 hours): greater than 20%
Reduction of viability (compared to vehicle controls) (HL-60; HL-60, 96 hours): greater than 20%
Reduction of viability (compared to vehicle controls) (MOLM-13; MOLM-13, 96 hours): greater than 20%
Reduction of viability (compared to vehicle controls) (OCI-AML3; OCI-AML3, 96 hours): greater than 20%

CN(C)CC[C@H](CSc1ccccc1)Nc1ccc(S(=O)(=O)NC(=O)c2ccc(N3CCN(Cc4ccccc4-c4ccc(Cl)cc4)CC3)cc2)cc1[N+](=O)[O-] [ABT737, 4-[4-[[2-(4-chlorophenyl)phenyl]methyl]piperazin-1-yl]-N-[4-[[(2R)-4-(dimethylamino)-1-phenylsulfanylbutan-2-yl]amino]-3-nitrophenyl]sulfonylbenzamide]
EC50 (MV(4;11); [1]): 6.3 nM
Reduction of viability (compared to vehicle controls) (MV(4;11); MV(4;11), 96 hours): greater than 20%
EC50 (OCI-AML2; [2]): 14 nM
Reduction of viability (compared to vehicle controls) (OCI-AML2; OCI-AML2, 96 hours): greater than 20%
EC50 (KASUMI-1; [3]): 124 nM
Reduction of viability (compared to vehicle controls) (KASUMI-1; KASUMI-1, 96 hours): greater than 20%
Reduction of viability (compared to vehicle controls) (HL-60; HL-60, 96 hours): greater than 20%
EC50 (HL-60; HL-60, 96 hours, single agent): 113 nM
EC50 (MOLM-13; [4]): 25 nM
Reduction of viability (compared to vehicle controls) (MOLM-13; MOLM-13, 96 hours): greater than 20%

CC(C)N(C[C@H]1O[C@@H](n2cnc3c(N)ncnc32)[C@H](O)[C@@H]1O)[C@H]1C[C@@H](CCc2nc3cc(C(C)(C)C)ccc3[nH]2)C1 [EPZ5676, Pinometostat]
EC50 (MV(4;11); [1]): 16 nM
Reduction of viability (compared to vehicle controls) (MV(4;11); MV(4;11), 96 hours): greater than 20%
EC50 (MOLM-13; [4]): 44.7 nM
Reduction of viability (compared to vehicle controls) (MOLM-13; MOLM-13, 96 hours): greater than 20%

CC(C)N(CCCNC(=O)Nc1ccc(C(C)(C)C)cc1)C[C@H]1O[C@@H](n2ccc3c(N)ncnc32)[C@H](O)[C@@H]1O [EPZ004777, 7-[5-Deoxy-5-[[3-[[[[4-(1,1-dimethylethyl)phenyl]amino]carbonyl]amino]propyl](1-methylethyl)amino]-β-D-ribofuranosyl]-7H-pyrrolo[2,3-d]pyrimidin-4-amine]
EC50 (MV(4;11); [1]): 118 nM
Reduction of viability (compared to vehicle controls) (MV(4;11); MV(4;11), 96 hours): greater than 20%
EC50 (MOLM-13; [4]): 108 nM
Reduction of viability (compared to vehicle controls) (MOLM-13; MOLM-13, 96 hours): greater than 20%

CC(C)(C)c1cc(NC(=O)Nc2ccc(-c3cn4c(n3)sc3cc(OCCN5CCOCC5)ccc34)cc2)no1 [Quizartinib]
EC50 (MV(4;11); [1]): < 1 nM
Reduction of viability (compared to vehicle controls) (MV(4;11); MV(4;11), 96 hours): greater than 20%
EC50 (OCI-AML2; [2]): 830 nM
Reduction of viability (compared to vehicle controls) (OCI-AML2; OCI-AML2, 96 hours): greater than 20%
EC50 (MOLM-13; [4]): < 1 nM
Reduction of viability (compared to vehicle controls) (MOLM-13; MOLM-13, 96 hours): greater than 20%

Nc1ccccc1NC(=O)c1ccc(CNC(=O)OCc2cccnc2)cc1 [Entinostat]
EC50 (MV(4;11); [1]): 98.5 nM
Reduction of viability (compared to vehicle controls) (MV(4;11); MV(4;11), 96 hours): greater than 20%
EC50 (OCI-AML2; [2]): 106 nM
Reduction of viability (compared to vehicle controls) (OCI-AML2; OCI-AML2, 96 hours): greater than 20%
EC50 (KASUMI-1; [3]): 168 nM
Reduction of viability (compared to vehicle controls) (KASUMI-1; KASUMI-1, 96 hours): greater than 20%
EC50 (THP-1; THP-1, 96 hours, single agent): 230 nM
Reduction of viability (compared to vehicle controls) (THP-1; THP-1, 96 hours): greater than 20%
Reduction of viability (compared to vehicle controls) (HL-60; HL-60, 96 hours): greater than 20%
EC50 (HL-60; HL-60, 96 hours, single agent): 42 nM
EC50 (MOLM-13; [4]): 52 nM
Reduction of viability (compared to vehicle controls) (MOLM-13; MOLM-13, 96 hours): greater than 20%
EC50 (OCI-AML3; [5]): 55.2 nM
Reduction of viability (compared to vehicle controls) (OCI-AML3; OCI-AML3, 96 hours): greater than 20%

Nc1ccn([C@@H]2O[C@H](CO)[C@@H](O)[C@@H]2O)c(=O)n1 [ARA-C, arabinofuranosyl cytidine]
EC50 (MV(4;11); [1]): 198 nM
Reduction of viability (compared to vehicle controls) (MV(4;11); MV(4;11), 96 hours): greater than 20%
EC50 (OCI-AML2; [2]): 26.5 nM
Reduction of viability (compared to vehicle controls) (OCI-AML2; OCI-AML2, 96 hours): greater than 20%
EC50 (KASUMI-1; [3]): 28.7 nM
Reduction of viability (compared to vehicle controls) (KASUMI-1; KASUMI-1, 96 hours): greater than 20%
EC50 (THP-1; THP-1, 96 hours, single agent): 252 nM
Reduction of viability (compared to vehicle controls) (THP-1; THP-1, 96 hours): greater than 20%
Reduction of viability (compared to vehicle controls) (HL-60; HL-60, 96 hours): greater than 20%
EC50 (HL-60; HL-60, 96 hours, single agent): 43.5 nM
EC50 (MOLM-13; [4]): 78.5 nM
Reduction of viability (compared to vehicle controls) (MOLM-13; MOLM-13, 96 hours): greater than 20%
EC50 (OCI-AML3; [5]): 145 nM
Reduction of viability (compared to vehicle controls) (OCI-AML3; OCI-AML3, 96 hours): greater than 20%

CC1=C(/C=C/C(C)=C/C=C/C(C)=C/C(=O)O)C(C)(C)CCC1 [ATRA, all-trans retinoic acid]
EC50 (MV(4;11); [1]): 2.8 nM
Reduction of viability (compared to vehicle controls) (MV(4;11); MV(4;11), 96 hours): greater than 20%
EC50 (OCI-AML2; [2]): 5.9 nM
Reduction of viability (compared to vehicle controls) (OCI-AML2; OCI-AML2, 96 hours): greater than 20%
EC50 (THP-1; THP-1, 96 hours, single agent): 1.7 nM
Reduction of viability (compared to vehicle controls) (THP-1; THP-1, 96 hours): greater than 20%
Reduction of viability (compared to vehicle controls) (HL-60; HL-60, 96 hours): greater than 20%
EC50 (HL-60; HL-60, 96 hours, single agent): 2.7 nM
EC50 (MOLM-13; [4]): 4.8 nM
Reduction of viability (compared to vehicle controls) (MOLM-13; MOLM-13, 96 hours): greater than 20%
EC50 (OCI-AML3; [5]): 0.8 nM
Reduction of viability (compared to vehicle controls) (OCI-AML3; OCI-AML3, 96 hours): greater than 20%

COc1ccc(C2=N[C@@H](c3ccc(Cl)cc3)[C@@H](c3ccc(Cl)cc3)N2C(=O)N2CCNC(=O)C2)c(OC(C)C)c1 [Nutlin3A, 4-[[(4S,5R)-4,5-bis(4-chlorophenyl)-4,5-dihydro-2-[4-methoxy-2-(1-methylethoxy)phenyl]-1H-imidazol-1-yl]carbonyl]-2-piperazinone]
EC50 (OCI-AML2; [2]): 446 nM
Reduction of viability (compared to vehicle controls) (OCI-AML2; OCI-AML2, 96 hours): greater than 20%
EC50 (THP-1; THP-1, 96 hours, single agent): 324 nM
Reduction of viability (compared to vehicle controls) (THP-1; THP-1, 96 hours): greater than 20%
EC50 (MOLM-13; [4]): 128 nM
Reduction of viability (compared to vehicle controls) (MOLM-13; MOLM-13, 96 hours): greater than 20%
EC50 (OCI-AML3; [5]): 659 nM
Reduction of viability (compared to vehicle controls) (OCI-AML3; OCI-AML3, 96 hours): greater than 20%

O=C(CCCCCCNC(=O)c1cnc(N(c2ccccc2)c2ccccc2)nc1)NO [Rocilinostat, Ricolinostat]
Reduction of viability (compared to vehicle controls) (MV(4;11); MV(4;11), 96 hours): greater than 20%
Reduction of viability (compared to vehicle controls) (OCI-AML2; OCI-AML2, 96 hours): greater than 20%
Reduction of viability (compared to vehicle controls) (KASUMI-1; KASUMI-1, 96 hours): greater than 20%
Reduction of viability (compared to vehicle controls) (THP-1; THP-1, 96 hours): greater than 20%
Reduction of viability (compared to vehicle controls) (HL-60; HL-60, 96 hours): greater than 20%
Reduction of viability (compared to vehicle controls) (MOLM-13; MOLM-13, 96 hours): greater than 20%
Reduction of viability (compared to vehicle controls) (OCI-AML3; OCI-AML3, 96 hours): greater than 20%

Nc1ncn([C@@H]2O[C@H](CO)[C@@H](O)[C@H]2O)c(=O)n1 [Azacitidine]
EC50 (MV(4;11); [1]): 1110 nM
Reduction of viability (compared to vehicle controls) (MV(4;11); MV(4;11), 96 hours): greater than 20%
EC50 (OCI-AML2; [2]): 1850 nM
Reduction of viability (compared to vehicle controls) (OCI-AML2; OCI-AML2, 96 hours): greater than 20%
EC50 (KASUMI-1; [3]): 2280 nM
Reduction of viability (compared to vehicle controls) (KASUMI-1; KASUMI-1, 96 hours): greater than 20%
EC50 (THP-1; THP-1, 96 hours, single agent): 2880 nM
Reduction of viability (compared to vehicle controls) (THP-1; THP-1, 96 hours): greater than 20%
Reduction of viability (compared to vehicle controls) (HL-60; HL-60, 96 hours): greater than 20%
EC50 (HL-60; HL-60, 96 hours, single agent): 1810 nM
EC50 (MOLM-13; [4]): 323 nM
Reduction of viability (compared to vehicle controls) (MOLM-13; MOLM-13, 96 hours): greater than 20%
EC50 (OCI-AML3; [5]): 889 nM
Reduction of viability (compared to vehicle controls) (OCI-AML3; OCI-AML3, 96 hours): greater than 20%

Nc1ncn([C@H]2C[C@H](O)[C@@H](CO)O2)c(=O)n1 [Decitabine, 5-aza-2′-deoxycytidine]
EC50 (MV(4;11); MV4-11, 96 h): 79.5 nM
Reduction of viability (compared to vehicle controls) (MV(4;11); MV(4;11), 96 hours): greater than 20%
EC50 (OCI-AML2; OCI-AML2, 96 h): 36 nM
Reduction of viability (compared to vehicle controls) (OCI-AML2; OCI-AML2, 96 hours): greater than 20%
EC50 (KASUMI-1; Kasumi 1, 96 h): 24 nM
Reduction of viability (compared to vehicle controls) (KASUMI-1; KASUMI-1, 96 hours): greater than 20%
EC50 (THP-1; THP-1, 96 h): 95 nM
Reduction of viability (compared to vehicle controls) (THP-1; THP-1, 96 hours): greater than 20%
Reduction of viability (compared to vehicle controls) (HL-60; HL-60, 96 hours): greater than 20%
EC50 (HL-60; HL-60, 96 h): 42.1 nM
EC50 (MOLM-13; MOLM-13, 96 h): 12.6 nM
Reduction of viability (compared to vehicle controls) (MOLM-13; MOLM-13, 96 hours): greater than 20%
EC50 (OCI-AML3; OCI-AML-3, 96 h): 100 nM
Reduction of viability (compared to vehicle controls) (OCI-AML3; OCI-AML3, 96 hours): greater than 20%
